Data: patent US20170328922A1, “METHODS AND PRODUCTS FOR LABELLING LIPIDS” (UNIVERSITY OF SOUTH AUSTRALIA, priority 2014, published 2017)

Columns and labels:
[1] = Rhenium molecular probe-lipid overlay (dot blot); type: binding; parameters: key to interaction with PE (dot blot): ✓ indicates a positive interaction; x indicates no interaction
Protocol: The experimental protocol probe-lipid overlay was as follows: 50 μM of each lipids was loaded on to PVDF membranes (Perkin Elmer, USA), which were then incubated with molecular probes. PhenCyano and PhenPyridyl were assessed against eleven lipids including; sphingomyelin (Cat # S0756, Sigma Aldrich, USA), sphingosine (Cat # S7049; Sigma Aldrich, USA), L-phosphatidylethanolamine (Cat # P7943, Sigma Aldrich, USA), monosialodanglioside (GM1; Cat # G7641, Sigma Aldrich, USA), oleoly-L-?-lysophosphatidic acid (Cat # L7260, Sigma Aldrich, USA), palmitic acid (Cat # P5917, Sigma Aldrich, USA), sphingomyelin (Cat # S0756, Sigma Aldrich, USA), sphingosine (Cat # S7049; Sigma Aldrich, USA), L-?-phosphatidylethanolamine (Cat # P7943, Sigma Aldrich, USA), monosialodanglioside (GM1; Cat # G7641, Sigma Aldrich, USA), progesterone (Cat #102722, MP Biomedical, USA), ceramide (Cat # C2137; Sigma Aldrich, USA), triacylglycerol mix C2-C10 (Cat #17810, Sigma Aldrich, USA) and cholesteryl acetate (Cat #151114; Sigma Aldrich, USA).
All other molecular probes were assessed against a panel of six lipids including; sphingomyelin (Cat # S0756, Sigma Aldrich, USA), sphingosine (Cat # S7049; Sigma Aldrich, USA), L-?-phosphatidylethanolamine (Cat # P7943, Sigma Aldrich, USA), monosialodanglioside (GM1; Cat # G7641, Sigma Aldrich, USA), sphingomyelin (Cat # S0756, Sigma Aldrich, USA), sphingosine (Cat # S7049; Sigma Aldrich, USA), L-?-phosphatidylethanolamine (Cat # P7943, Sigma Aldrich, USA), monosialodanglioside (GM1; Cat # G7641, Sigma Aldrich, USA) and triacylglycerol mix C2-C10 (Cat #17810, Sigma Aldrich, USA).
Lipids were dissolved in ethanol, methanol or isopropanol for loading depending on solubility. Following lipid loading, membranes were left to dry for 20-30 minutes, then they were washed for 10 minutes in cold 10% ethanol, before they were incubated with 10 μM solution of each Rhenium molecular probe in cold 10% ethanol for one hour. Membranes were than washed four times for 10 minutes in cold 10% ethanol prior to imaging. Imaging was performed on an Image Quant Las 4000 (GE, Sweden) luminescent image analyser, with the Rhenium molecular probe being detected by excitation at 460 nm using an epi-blue light source, and detected using an 575 nm ethidium bromide filter.

[2] = system: Drosophila fat body tissue; assay: Live staining and confocal imaging of explanted fat body tissue; type: cell-based
Protocol: All stocks were maintained in standard medium at 25° C. The yeast GAL4-UAS system was used for targeted gene expression (Brand and Perrimon, 1993). Fat-body specific expression of transgenes from the UAS were driven by CG-GAL4 (Asha et al., 2003). Transgenic UAS-Atg9RNAi stocks (#34901) and UAS-TorTED stocks (#7013) were obtained from the Bloomington Drosophila Stock Centre (Indiana University, IN, USA). Atg8aGFP was driven by an endogenous promoter (Kelso et al., 2004).
Bromophenol-blue was added to the fly media and used to define different developmental time points. […] Newly formed white pupae (0 h PF), were isolated onto moist filter paper and incubated at 25° C. for either two hours (+2 h PF) or four hours (+4 h PF).
Third instar larvae at −8 h PF were removed from standard media (normally feeding at this developmental stage) and placed on filter paper either soaked in 5% (w/v) sucrose (for amino acid deprivation), or 5% (w/v) tryptone pancreatic digest of casein (BD Bioscience USA; for carbohydrate deprivation), or soaked in water (for complete starvation). Larvae were incubated for 4-5 hours prior tissue isolation and imaging.
Fat body tissue was dissected into PBS from Drosophila larvae or pupae. The fat body tissue was either incubated with 10 μM tricarbonyl phenanthrolin (4-cyanophenyltretrazolato) Rhenium (I) in PBS for 15 minutes at room temperature, or LysoTracker® green (according to manufacturer instructions; Invitrogen, USA) and then mounted in carbomer-940 (Snowdrift farm, Tucson, USA) based optical coupling gel to prevent dehydration prior to imaging (Rothstein et al., 2006). For Oil Red O staining, fat body tissue was fixed in 4% (v/v) paraformaldehyde for 20 minutes, and incubated in 1/100 Oil Red 0 for 30 minutes and then washed in PBS before mounting in 80% glycerol.
A Ziess LSM710 META NLO confocal microscope (Zeiss, Germany), supplemented with a two-photon Mai-Tai® (tunable Ti:Sapphire femtosecond pulse laser, 710-920 nm, Spectra-Physics, Australia) was used for imaging. The images were acquired using a Plan-APOCHROMAT 63×/NA1.4 oil immersion objective. The Rhenium probe was excited at 830 nm using the two-photon pulse laser and detect at 600-654 nm. LysoTracker® green was imaged by excitation at 488 nm and detected at 497-558 nm. Atg8a-GFP was imaged with the Rhenium probe by excitation at 830 nm and resolved using spectral un-mixing using the Zen software package (based on spectral figure-printing of the two components). The Rhenium probe images and co-location analysis involved at least five separate images from five independent biological replicates, and one representative image from each treatment was selected for presentation (containing a minimum of 2 cells). For image quantification, two regions of interest (ROI) were selected at random with an area of 2500 μm^2 and the number of fluorescent puncta within the area counted, to give a minimum of 10 counts per treatment group. Comparison of means was performed by ANOVA with a Tukey post hoc tested in GraphPad Prism V.6.01 (USA).

For `N#Cc1ccc(-c2nn[n]([Re](=[C]=O)(=[C]=O)=[C]=O)n2)cc1.c1cnc2c(c1)ccc1cccnc12` [PhenCyano, Triscarbonyl phenanthroline (4-cyanophenyltetrazolato)Rhenium(I)], the “interaction with PE (dot blot)” value ([1]; 10 μM probe, 50 μM lipid on PVDF membrane) was “✓”, the “affinity towards phosphatidylethanolamine (PE), in words” value ([1]; FIG. 7 / FIG. 8) was “some affinity” and the “probe distribution in fat body” value ([2]; 0 h PF, 10 μM probe, 15 minutes) was “most of the Rhenium probe was still inside lipid droplets”. For the same molecule, the “probe distribution in fat body” value ([2]; +2 h PF, 10 μM probe, 15 minutes) was “dramatic reduction in the amount of Rhenium probe interacting with lipid droplets”, the “vesicles staining with the probe that were also Atg8a-GFP positive” value ([2]; −4 h PF larvae starved (amino acid and sugar deprivation)) was “approximately 90±11%” and the “probe distribution in fat body” value ([2]; −4 h PF, 10 μM probe, 15 minutes) was “interacted with the core of lipid droplets”. The “probe distribution in fat body” value ([2]; −8 h PF, dominant negative TorTED expression) was “almost all of the Rhenium probe in LysoTracker® green positive vesicles”.
